# Tests used:
# Assay type in all cases: cell-based, mouse
# [1] = system: EC d6 (endothelial-like cells); assay: RT-qPCR mRNA expression; conditions: for Cdkn1a mRNA / Cdkn2a mRNA / Glb1 mRNA / Il6 mRNA / Il8 mRNA / Tp53 mRNA: Fig 7C; for Atp7a mRNA / Atp7b mRNA / Ctr2 mRNA / Mdr1 mRNA / Mrp1 mRNA / Oct2 mRNA: Fig 2D
# Procedure: Total RNA was purified using the RNeasy Mini Kit (Qiagen, Hilden, Germany). Reverse transcriptase (RT) reaction was performed with the HighCapacity cDNA Reverse Transcription Kit (Applied Biosystems, Darmstadt, Germany) using 900–2000 ng of RNA. Quantitative RT-qPCR analysis was performed using following conditions: (1) 95 °C–10 min; (2) 45 amplification cycles with 95 °C–15 s, 55 °C–15 s, and 72 °C–17 s; (3) 95 °C–1 min, 55 °C–1 min, 65 °C–5 s. If not stated otherwise, analyses were performed in technical triplicates using pooled samples from two independent experiments (each performed with biological duplicates) by use of a CFX96 cycler (BioRad) and the SensiMix SYBR Kit (Bioline, London, UK). The primers used for mRNA expression analyses are listed in Supplementary Table 1. To ensure the specificity of the amplification product, melting curves were recorded at the end of the run. mRNA expression levels were normalized to β-Actin and Gapdh. Relative mRNA expression in mESC or corresponding untreated controls was set to 1.0. Only changes in gene expression of ≤ 0.5- and ≥ 2-fold were considered as biologically relevant.
# [2] = system: EC d4 (endothelial progenitor cells); assay: Western blot protein expression (densitometry); conditions: EC d4 48 h; for CHK1 protein / RAD51 protein / gH2AX protein / p-CHK2 protein / p-KAP1 protein / p-RPA32 protein / p-p53 protein: Fig 5D
# How it was run: (§1)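 Whole-cell RIPA extracts (probe sonication) quantified by DC assay; 20 µg protein resolved by SDS-PAGE, blotted to nitrocellulose. Blocked 1 h RT in 5% milk or BSA/TBST; primary antibodies 1:500–5000 overnight 4 °C, peroxidase secondary 1:2000 2 h RT. Chemiluminescent bands imaged, levels by densitometry.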
# [3] = system: EC d6 (endothelial-like cells); assay: Western blot protein expression (densitometry); conditions: EC d6 24 h; for CHK1 protein / RAD51 protein / gH2AX protein / p-CHK2 protein / p-KAP1 protein / p-RPA32 protein / p-p53 protein: Fig 5D
# How it was run: as §1
# mESC = assay: Western blot protein expression (densitometry); conditions: mESC 24 h
# How it was run: as §1
# EC d4 [4] = assay: ZO1 tight junction immunofluorescence; conditions: EC d4 treated 48 h
# EC d4 [5] = assay: VE-cadherin cell-cell junction immunostaining; conditions: EC d4 treated 48 h
# [6] = EC d6 + 0.05 µM 24 h + 24 h post incubation
# [7] = EC d6 + 0.1 µM 24 h + 24 h post incubation
# [8] = concentration 1 (Dox 1/B02 1/EST 1)
# [9] = concentration 2 (Dox 2/B02 2/EST 2)
# [10] = Fig 5D, concentration 1 (Dox 1/B02 1/EST 1)
# [11] = Fig 5D, concentration 2 (Dox 2/B02 2/EST 2)
smiles,measurement,setting,value
"COc1cccc2c1C(=O)c1c(O)c3c(c(O)c1C2=O)C[C@@](O)(C(=O)CO)C[C@@H]3O[C@H]1C[C@H](N)[C@H](O)[C@H](C)O1 [Dox, doxorubicin]",Cdkn1a mRNA,[1]; [6],4.38 Fold of untreated control
same,Cdkn2a mRNA,[1]; [6],1.77 Fold of untreated control
same,Glb1 mRNA,[1]; [6],1.49 Fold of untreated control
same,Il6 mRNA,[1]; [6],1.91 Fold of untreated control
same,Il8 mRNA,[1]; [6],1.31 Fold of untreated control
same,Tp53 mRNA,[1]; [6],1.15 Fold of untreated control
same,Atp7a mRNA,[1]; EC d6 + 0.05 µM 24 h,1.47 Fold of control
same,Atp7b mRNA,[1]; EC d6 + 0.05 µM 24 h,0.99 Fold of control
same,Ctr2 mRNA,[1]; EC d6 + 0.05 µM 24 h,1.13 Fold of control
same,Mdr1 mRNA,[1]; EC d6 + 0.05 µM 24 h,4.89 Fold of control
same,Mrp1 mRNA,[1]; EC d6 + 0.05 µM 24 h,1.23 Fold of control
same,Oct2 mRNA,[1]; EC d6 + 0.05 µM 24 h,0.25 Fold of control
same,Gpx1 mRNA,"[1]; EC d6 + 0.05 µM 24 h, Fig 6C",1.10 Fold of untreated control
same,Gpx4 mRNA,"[1]; EC d6 + 0.05 µM 24 h, Fig 6C",1.68 Fold of untreated control
same,Gstm1 mRNA,"[1]; EC d6 + 0.05 µM 24 h, Fig 6C",2.52 Fold of untreated control
same,Hmox1 mRNA,"[1]; EC d6 + 0.05 µM 24 h, Fig 6C",2.63 Fold of untreated control
same,Pgc1a mRNA,"[1]; EC d6 + 0.05 µM 24 h, Fig 6C",10.96 Fold of untreated control
same,Sod1 mRNA,"[1]; EC d6 + 0.05 µM 24 h, Fig 6C",2.60 Fold of untreated control
same,Sod2 mRNA,"[1]; EC d6 + 0.05 µM 24 h, Fig 6C",1.17 Fold of untreated control
same,Slc7a11 mRNA,"[1]; EC d6 + 0.05 µM 24 h, Fig 6F",0.82 Fold of untreated control
same,Cdkn1a mRNA,[1]; [7],5.67 Fold of untreated control
same,Cdkn2a mRNA,[1]; [7],2.66 Fold of untreated control
same,Glb1 mRNA,[1]; [7],1.97 Fold of untreated control
same,Il6 mRNA,[1]; [7],3.23 Fold of untreated control
same,Il8 mRNA,[1]; [7],1.15 Fold of untreated control
same,Tp53 mRNA,[1]; [7],1.09 Fold of untreated control
same,Atp7a mRNA,[1]; EC d6 + 0.1 µM 24 h,1.77 Fold of control
same,Atp7b mRNA,[1]; EC d6 + 0.1 µM 24 h,1.11 Fold of control
same,Ctr2 mRNA,[1]; EC d6 + 0.1 µM 24 h,1.27 Fold of control
same,Mdr1 mRNA,[1]; EC d6 + 0.1 µM 24 h,11.55 Fold of control
same,Mrp1 mRNA,[1]; EC d6 + 0.1 µM 24 h,1.40 Fold of control
same,Oct2 mRNA,[1]; EC d6 + 0.1 µM 24 h,1.39 Fold of control
same,Brca1 mRNA,"[1]; EC d6 + 0.1 µM 24 h, Fig 5C",0.45 Fold of mESC
same,Chk1 mRNA,"[1]; EC d6 + 0.1 µM 24 h, Fig 5C",0.43 Fold of mESC
same,Rad51 mRNA,"[1]; EC d6 + 0.1 µM 24 h, Fig 5C",0.48 Fold of mESC
same,Pgc1a mRNA,"[1]; EC d6 + 0.1 µM 24 h, Fig 6D",21.56 Fold of untreated control
same,Gpx4 mRNA,"[1]; EC d6 + 0.1 µM 24 h, Fig 6F",0.99 Fold of untreated control
same,Slc7a11 mRNA,"[1]; EC d6 + 0.1 µM 24 h, Fig 6F",1.09 Fold of untreated control
same,Cldn5 mRNA,"[1]; EC d6 + 0.1 µM 24 h, Fig 8C",2.50 Fold of EC d4 or d6
same,Ocln mRNA,"[1]; EC d6 + 0.1 µM 24 h, Fig 8C",1.79 Fold of EC d4 or d6
same,Tjp1 mRNA,"[1]; EC d6 + 0.1 µM 24 h, Fig 8C",1.21 Fold of EC d4 or d6
same,H3ac protein,[2]; Fig 1D,0.0 Fold of mESC
same,H4ac protein,[2]; Fig 1D,0.0 Fold of mESC
same,aTubac (acetylated α-Tubulin) protein,[2]; Fig 1D,0.3 Fold of mESC
same,CHK1 protein,[2]; [8],2.1 Fold of mESC
same,RAD51 protein,[2]; [8],0.1 Fold of mESC
same,gH2AX protein,[2]; [8],142.6 Fold of mESC
same,p-CHK2 protein,[2]; [8],0.7 Fold of mESC
same,p-KAP1 protein,[2]; [8],0.0 Fold of mESC
same,p-RPA32 protein,[2]; [8],0.5 Fold of mESC
same,p-p53 protein,[2]; [8],2.0 Fold of mESC
same,CHK1 protein,[2]; [9],0.2 Fold of mESC
same,RAD51 protein,[2]; [9],< 0.1 Fold of mESC
same,gH2AX protein,[2]; [9],44.9 Fold of mESC
same,p-CHK2 protein,[2]; [9],0.2 Fold of mESC
same,p-KAP1 protein,[2]; [9],0.0 Fold of mESC
same,p-RPA32 protein,[2]; [9],0.1 Fold of mESC
same,p-p53 protein,[2]; [9],2.6 Fold of mESC
same,AMPKa protein,[2]; Fig 6E,0.7 Fold of mESC
same,GSK3b protein,[2]; Fig 6E,5.7 Fold of mESC
same,p-p70SK protein,[2]; Fig 6E,0.5 Fold of mESC
same,H3ac protein,[3]; Fig 1D,0.0 Fold of mESC
same,H4ac protein,[3]; Fig 1D,0.0 Fold of mESC
same,aTubac (acetylated α-Tubulin) protein,[3]; Fig 1D,0.6 Fold of mESC
same,CHK1 protein,[3]; [8],1.7 Fold of mESC
same,RAD51 protein,[3]; [8],1.7 Fold of mESC
same,gH2AX protein,[3]; [8],4.6 Fold of mESC
same,p-CHK2 protein,[3]; [8],0.8 Fold of mESC
same,p-KAP1 protein,[3]; [8],0.0 Fold of mESC
same,p-RPA32 protein,[3]; [8],0.2 Fold of mESC
same,p-p53 protein,[3]; [8],4.2 Fold of mESC
same,CHK1 protein,[3]; [9],1.0 Fold of mESC
same,RAD51 protein,[3]; [9],1.3 Fold of mESC
same,gH2AX protein,[3]; [9],31.8 Fold of mESC
same,p-CHK2 protein,[3]; [9],0.5 Fold of mESC
same,p-KAP1 protein,[3]; [9],0.0 Fold of mESC
same,p-RPA32 protein,[3]; [9],0.1 Fold of mESC
same,p-p53 protein,[3]; [9],3.1 Fold of mESC
same,AMPKa protein,[3]; Fig 6E,0.6 Fold of mESC
same,GSK3b protein,[3]; Fig 6E,4.3 Fold of mESC
same,p-p70SK protein,[3]; Fig 6E,2.8 Fold of mESC
same,H3ac protein,mESC; Fig 1D,0.3 Fold of mESC
same,H4ac protein,mESC; Fig 1D,0.0 Fold of mESC
same,aTubac (acetylated α-Tubulin) protein,mESC; Fig 1D,0.5 Fold of mESC
same,CHK1 protein,"mESC; Fig 4H, Dox 2",1.3 Fold of mESC
same,p-ATR protein,"mESC; Fig 4H, Dox 2",2.7 Fold of mESC
same,p-CHK1 protein,"mESC; Fig 4H, Dox 2",4.4 Fold of mESC
same,p-RPA32 protein,"mESC; Fig 4H, Dox 2",1.5 Fold of mESC
same,p-p53 protein,"mESC; Fig 4H, Dox 2",6.5 Fold of mESC
same,CHK1 protein,"mESC; Fig 4H, Eto, Dox 1, B02, EST",1.0 Fold of mESC
same,p-ATR protein,"mESC; Fig 4H, Eto, Dox 1, B02, EST",1.9 Fold of mESC
same,p-CHK1 protein,"mESC; Fig 4H, Eto, Dox 1, B02, EST",2.4 Fold of mESC
same,p-RPA32 protein,"mESC; Fig 4H, Eto, Dox 1, B02, EST",1.1 Fold of mESC
same,p-p53 protein,"mESC; Fig 4H, Eto, Dox 1, B02, EST",6.4 Fold of mESC
same,CHK1 protein,mESC; [10],1.7 Fold of mESC
same,RAD51 protein,mESC; [10],1.2 Fold of mESC
same,gH2AX protein,mESC; [10],69.7 Fold of mESC
same,p-CHK2 protein,mESC; [10],1.1 Fold of mESC
same,p-KAP1 protein,mESC; [10],31.2 Fold of mESC
same,p-RPA32 protein,mESC; [10],1.4 Fold of mESC
same,p-p53 protein,mESC; [10],4.2 Fold of mESC
same,CHK1 protein,mESC; [11],1.8 Fold of mESC
same,RAD51 protein,mESC; [11],0.9 Fold of mESC
same,gH2AX protein,mESC; [11],174.9 Fold of mESC
same,p-CHK2 protein,mESC; [11],1.5 Fold of mESC
same,p-KAP1 protein,mESC; [11],59.9 Fold of mESC
same,p-RPA32 protein,mESC; [11],1.8 Fold of mESC
same,p-p53 protein,mESC; [11],5.7 Fold of mESC
same,AMPKa protein,mESC; Fig 6E,0.2 Fold of mESC
same,GSK3b protein,mESC; Fig 6E,0.8 Fold of mESC
same,p-p70SK protein,mESC; Fig 6E,1.1 Fold of mESC
same,ZO1 containing tight junctions in EC d6 differentiated from treated EC d4,EC d4 [4],fragmented / interrupted ZO1 containing tight junctions
same,VE-cadherin cell-cell junctions in EC d6 differentiated from treated EC d4,EC d4 [5],disturbed

# — paper PMC13308190, “Endothelial progenitor cell susceptibility to DNA damaging and DDR-modulating compounds determines endothelial differentiation accuracy” (Stem Cell Research & Therapy, 2026)
